In one series the test system is cortical neurones. Briefly: Alamar Blue cellular viability assay in primary cortical cultures. The class given is cell-based, mouse. As to conditions: 72 hours in culture. The text has this: (§1) In order to carry out the experiments of the present invention, either an in vitro cortical neuronal model with simultaneous overexpression of tau and β-amyloid, obtained from a model of Alzheimer's disease in triple-transgenic (3×Tg-AD or 3×Tg) mice, obtainable via the detailed procedure in the international patent application WO2003/053136 and provided by the title holders of this application, or an in vitro cortical neuronal model obtained from non-transgenic (No-Tg) mice.
Primary cortical cultures in the embodiment of the invention were obtained from 3×Tg-AD mouse embryos of 15-17 days gestation and the wild cultures were obtained from non 3×Tg control mouse embryos of the same strain. The effect of the compounds used in this invention on cellular viability was estimated by a fluorescence assay using the Alamar Blue viability indicator. To carry out the assay, primary cortical cultures seeded on 96-well plates were used. The neuronal cells were incubated in the culture medium with the spirolide of the present invention at different concentrations dissolved in dimethyl sulfoxide and the effect on neuronal viability was determined at different treatment times in vitro. The maximum concentration of 13-desmethyl spirolide evaluated was 100 nM and the concentration of Alamar blue was 10%. The volume of the reaction used was 200 μl. Fluorescence was measured at wavelengths of 530 nm (excitation) and 590 nm (emission).

The test system of a further series is β-amyloid. The series is described as follows: Western blot of intracellular β-amyloid (6E10 antibody) in 3xTg-AD cortical neuronal cultures. The class given is cell-based, mouse.
Source text: as §1
(§2) For the determination of the effect of the spirolide compound of the present invention on the expression of tau and beta amyloid, the Western blot techniques were used. […] For Western blot studies, protein expression was evaluated using 6E10 anti-β-amyloid primary antibodies at a dilution of 1:500, AT8 anti-Tau (tau phosphorylated on Ser202, dilution 1:1000) and AT100 anti-tau (tau phosphorylated on Thr 212 and Ser214, dilution 1:1000).
(§3) For Western blot assays, neuronal cultures treated with the spirolide of the present invention were washed with cold phosphate buffer and lysed in 50 mM Tris-HCl buffer (pH 7.4) containing 150 mM NaCl, 1 mM EDTA, 1% Triton X-100, 2 mM DTT, 2.5 mM PMSF, 40 mg/ml aprotinin, 4 mg/ml leupeptin, 5 mM NaF, 1 mM Na3VO4, 1 mg/ml pepstatin A and 1 mg/ml benzamidine. Total protein concentration was determined by Bradford's method using bovine albumin as standard. […]

For series [1] the following is noted: oral; cited from earlier work.
The conditions of series [2]: administered intraperitoneally, rat and mouse; cited from earlier work.
For series [3], the system named is tau phosphorylated on Ser202. Briefly: Western blot of phosphorylated tau (AT8 antibody) in 3xTg-AD cortical neuronal cultures. The class given is cell-based, mouse. As to conditions: for levels of tau phosphorylated on Serine 202: day 3 to day 10 in vitro, untreated 3xTg 129.1.
Source text: as §1
The administration of 50 nM spirolide is equivalent to approximately 37 μg spirolide per kg of body weight. Intraperitoneal administration of an amount higher than 37 μg per kg body weight to a mouse reduced the levels of these proteins but produced toxic effects in the animal (Santokh et al., 2003. NeuroToxicology, 24: 593-604), however, the oral toxicity of spirolides is 1 mg per kg body weight.
For the determination of the effect of the spirolide compound of the present invention on the expression of tau and beta amyloid, the Western blot techniques were used. The primary neuronal cultures were incubated with the spirolide compound of the present invention added to the culture medium for a specific time. For the concentration of 50 nM, the treatment times were between 7 and 10 days in vitro and for other concentrations (0.1 to 25 nM) between 3 and 10 days in vitro. The cells were then processed following the usual protocols for Western blot. For Western blot studies, protein expression was evaluated using 6E10 anti-β-amyloid primary antibodies at a dilution of 1:500, AT8 anti-Tau (tau phosphorylated on Ser202, dilution 1:1000) and AT100 anti-tau (tau phosphorylated on Thr 212 and Ser214, dilution 1:1000).
For Western blot assays, neuronal cultures treated with the spirolide of the present invention were washed with cold phosphate buffer and lysed in 50 mM Tris-HCl buffer (pH 7.4) containing 150 mM NaCl, 1 mM EDTA, 1% Triton X-100, 2 mM DTT, 2.5 mM PMSF, 40 mg/ml aprotinin, 4 mg/ml leupeptin, 5 mM NaF, 1 mM Na3VO4, 1 mg/ml pepstatin A and 1 mg/ml benzamidine. Total protein concentration was determined by Bradford's method using bovine albumin as standard. Aliquots of cellular lysates containing 20 μg total protein were loaded in loading buffer (50 mM Tris-HCl, 100 mM dithiothreitol, 2% SDS, 20% glycerol, 0.05% bromophenol blue, pH 6.8), the proteins were separated by electrophoresis and transferred to PVDF membranes. The membranes were incubated with the primary antibodies, washed and then incubated with a secondary antibody bound to HRP. Immunoreactivity was detected by chemiluminescence. The same membranes were reincubated with an anti-β-actin primary antibody to carry out data correction for the sample protein content.

The next series concerns total tau. The series is described as follows: Western blot of total basal tau (Tau46 antibody) in control non-transgenic cortical neurones. The class given is cell-based, mouse. The conditions noted are these: 100 nM. The procedure:
The effect of spirolide on basal phosphorylation of tau was determined by Western blot techniques. An in vitro cortical neuronal model obtained from non-transgenic mice was used. Neuronal culture and sample processing was carried out in the same way as described in the previous example. The data obtained were corrected for the β-actin content of the samples.

In series [4] the test system is tau phosphorylated on Thr212 and Ser214. Briefly: Western blot of phosphorylated tau (AT100 antibody) in 3xTg-AD cortical neuronal cultures. The conditions noted are these: 3xTg cultures, FIG. 3B, p<0.005, n=3. It counts as cell-based, mouse.
Source text: as §1, §2, §3

On to 13-desmethyl spirolide, for which the “Viability of cortical neurones” value in the series with cortical neurones (2.5 nM) came out at 104.3 ± 1.2 % control; with cortical neurones (5 nM) it was 104 ± 1.3 % control; with cortical neurones (10 nM), 104.3 ± 1.4 % control; in the series with cortical neurones (25 nM), 104.3 ± 0.7 % control; in the series with cortical neurones (50 nM) it was 103.4 ± 0.5 % control; with cortical neurones (100 nM), 102.1 ± 1.5 % control. Also, the β-amyloid protein result in the series on β-amyloid (0.5 nM) is reported as “reducing β-amyloid protein”. For the same substance, the “overexpression of β-amyloid (Western blot quantification, 6E10)” value in the series on β-amyloid (3xTg cultures, FIG. 1B, p<0.005 vs untreated transgenic cultures, n=3) is listed as “significant reduction”. Further, the “toxicity when administered orally” value in series [1] is “not toxic”. Further, the “concentration causing toxic effects” value in series [2] is 37-40 μg/kg body weight. Besides, the “hyperphosphorylation of the tau protein” value in series [3] (0.017 μg per kg body weight (approx. 0.023 nM)) is “continued to be reduced”. Moreover, the “levels of tau phosphorylated on Serine 202” value in series [3] (3xTg cultures, 0.1 nM) is recorded as 129.8 ± 1.7 % control; in series [3] (3xTg cultures, 0.5 nM) it was 61.7 ± 12.4 % control; in series [3] (3xTg cultures, 10 nM), 70.3 ± 4.7 % control; in series [3] (3xTg cultures, 25 nM), 89.1 ± 2.2 % control. The “tau phosphorylation (AT8, Ser202; Western blot quantification)” value in series [3] (3xTg cultures, FIG. 2B, p<0.05, n=3) is “significant reduction”. In addition, the “total basal tau levels in control neurones” value in the series on total tau is reported as 139.9 ± 27.3 % control; in the series with total tau (listed as spirolide) it was “did not affect”. Further, the “tau phosphorylation (AT100, Thr212 and Ser214; Western blot quantification)” value in series [4] is “significant reduction”.

Values taken from patent US20120258956A1, “USE OF A SPIROLIDE, ANALOGUES AND DERIVATIVES FOR TREATING AND/OR PREVENTING PATHOLOGICAL CONDITIONS LINKED TO THE TAU AND BETA-AMYLOID PROTEINS” (priority 2009, published 2012).
